{"source": "patent US10227337B2", "about": "“Evaluation probe for central nervous system permeability, evaluation method for central nervous system permeability, and screening method using an evaluation probe for central nervous system permeability” (CANON KABUSHIKI KAISHA, priority 2011, dated 2019)", "data": [{"test_system": "not listed separately", "experiment": "Measurement of fluorescence characteristics of dye compounds", "format": "physicochemical", "details": "5-μM solution in DMSO", "excerpt": "5-μM solutions of Dye compounds 1 to 46 in DMSO were each prepared and measured for its excitation wavelength and fluorescence emission wavelength with an FL4500 fluorescence spectrometer manufactured by Hitachi High-Technologies Corporation.", "units": {"Excitation wavelength λex": "nm", "Fluorescence wavelength λem": "nm"}, "values": [{"smiles": "CCN1C(=O)/C(=c2\\s/c(=C/c3ccc4c(c3)C3CCCC3N4c3ccc4cc(OC)ccc4c3)c(=O)n2CC(=O)O)SC1=S", "note": "(centres unmarked) [Compound 34]", "Excitation wavelength λex": 543, "Fluorescence wavelength λem": 649}, {"smiles": "CCCCCCCCN1C(=O)/C(=c2\\s/c(=C/c3ccc4c(c3)C3CCCC3N4c3ccc(OC)cc3)c(=O)n2CC(=O)OCC)SC1=S", "note": "(centres unmarked) [Compound 43]", "Excitation wavelength λex": 552, "Fluorescence wavelength λem": 668}, {"smiles": "CCN1C(=O)/C(=c2\\s/c(=C/c3ccc4c(c3)C3CCCC3N4c3ccccc3)c(=O)n2CC(=O)O)SC1=S", "note": "(centres unmarked) [Compound 29]", "Excitation wavelength λex": 525, "Fluorescence wavelength λem": 610}, {"smiles": "CCn1c2ccccc2c2cc(/C=C3/SC(=S)N(CC(=O)O)C3=O)ccc21", "note": "[Compound 25]", "Excitation wavelength λex": 453, "Fluorescence wavelength λem": 536}, {"smiles": "CCn1c2ccccc2c2cc(/C=C3/SC(=S)N(CCC(=O)O)C3=O)ccc21", "note": "[Compound 9]", "Excitation wavelength λex": 452, "Fluorescence wavelength λem": 540}, {"smiles": "O=C(O)CN1C(=O)/C(=C\\c2ccc3c(c2)C2CCCC2N3c2ccccc2)SC1=S", "note": "(centres unmarked) [Compound 17]", "Excitation wavelength λex": 508, "Fluorescence wavelength λem": 604}, {"smiles": "CCN1c2ccc(/C=C3/SC(=S)N(CC(=O)O)C3=O)cc2CC1C", "note": "(centres unmarked) [Compound 16]", "Excitation wavelength λex": 510, "Fluorescence wavelength λem": 590}, {"smiles": "CCCN1c2ccc(/C=C3/SC(=S)N(CCC(=O)O)C3=O)cc2C2CCCC21", "note": "(centres unmarked) [Compound 10]", "Excitation wavelength λex": 519, "Fluorescence wavelength λem": 592}, {"smiles": "O=C(O)CCN1C(=O)/C(=C\\c2ccc3c(c2)C2CCCC2N3c2ccccc2)SC1=S", "note": "(centres unmarked) [Compound 4]", "Excitation wavelength λex": 502, "Fluorescence wavelength λem": 604}, {"smiles": "COc1ccc(N2c3ccc(/C=C4/SC(=S)N(CCC(=O)O)C4=O)cc3C3CCCC32)cc1", "note": "(centres unmarked) [Compound 2]", "Excitation wavelength λex": 521, "Fluorescence wavelength λem": 634}, {"smiles": "CCN1C(=O)/C(=c2\\s/c(=C/c3cc(Br)c4c(c3)C3CCCC3N4Cc3ccccc3)c(=O)n2CC(=O)O)SC1=S", "note": "(centres unmarked) [Compound 37]", "Excitation wavelength λex": 525, "Fluorescence wavelength λem": 616}, {"smiles": "CCN1C(=O)/C(=c2\\s/c(=C/c3ccc4c(c3)C3CCCC3N4c3ccc(OC)cc3)c(=O)n2CC(=O)O)SC1=S", "note": "(centres unmarked) [Compound 31]", "Excitation wavelength λex": 550, "Fluorescence wavelength λem": 650}, {"smiles": "CCN1C(=O)/C(=c2\\s/c(=C/c3ccc4c(c3)C3CCCC3N4c3ccc(SC)cc3)c(=O)n2CC(=O)O)SC1=S", "note": "(centres unmarked) [Compound 32]", "Excitation wavelength λex": 544, "Fluorescence wavelength λem": 658}, {"smiles": "CSc1ccc(N2c3ccc(/C=C4/SC(=S)N(CC(=O)O)C4=O)cc3C3CCCC32)cc1", "note": "(centres unmarked) [Compound 15]", "Excitation wavelength λex": 517, "Fluorescence wavelength λem": 638}, {"smiles": "C=CCN1C(=O)/C(=c2\\s/c(=C/c3ccc4c(c3)C3CCCC3N4c3ccc(OC)cc3)c(=O)n2CC(=O)O)SC1=S", "note": "(centres unmarked) [Compound 41]", "Excitation wavelength λex": 515, "Fluorescence wavelength λem": 624}, {"smiles": "CCOC(=O)CCN1C(=O)/C(=C\\c2ccc3c(c2)C2CCCC2N3CC)SC1=S", "note": "(centres unmarked) [Compound 27]", "Excitation wavelength λex": 518, "Fluorescence wavelength λem": 590}, {"smiles": "CCN1C(=O)/C(=c2\\s/c(=C/c3ccc4c(c3)c3ccccc3n4CC)c(=O)n2CC(=O)O)SC1=S", "note": "[Compound 40]", "Excitation wavelength λex": 494, "Fluorescence wavelength λem": 551}, {"smiles": "COc1ccc2cc(N3c4ccc(/C=C5/SC(=S)N(CCC(=O)O)C5=O)cc4C4CCCC43)ccc2c1", "note": "(centres unmarked) [Compound 5]", "Excitation wavelength λex": 521, "Fluorescence wavelength λem": 646}, {"smiles": "CCN1c2ccc(/C=C3/SC(=S)N(CCCCCCCCCCC(=O)O)C3=O)cc2C2CCCC21", "note": "(centres unmarked) [Compound 46]", "Excitation wavelength λex": 516, "Fluorescence wavelength λem": 585}, {"smiles": "CCN1C(=O)/C(=c2\\s/c(=C/c3ccc4c(c3)CCN4c3ccccc3)c(=O)n2CC(=O)O)SC1=S", "note": "[Compound 39]", "Excitation wavelength λex": 536, "Fluorescence wavelength λem": 640}, {"smiles": "COc1ccc(N2c3ccc(/C=C4/SC(=S)N(CC(=O)O)C4=O)cc3C3CCCC32)cc1", "note": "(centres unmarked) [Compound 23]", "Excitation wavelength λex": 518, "Fluorescence wavelength λem": 637}, {"smiles": "CCN1CCc2cc(/C=C3/SC(=S)N(CCC(=O)O)C3=O)ccc21", "note": "[Compound 8]", "Excitation wavelength λex": 510, "Fluorescence wavelength λem": 597}, {"smiles": "O=C(O)CN1C(=O)/C(=C\\c2ccc3c(c2)C2CCCC2N3Cc2ccccc2)SC1=S", "note": "(centres unmarked) [Compound 20]", "Excitation wavelength λex": 506, "Fluorescence wavelength λem": 581}, {"smiles": "CCN1C(=O)/C(=c2\\s/c(=C/c3ccc4c(c3)CCN4CC)c(=O)n2CC(=O)O)SC1=S", "note": "[Compound 38]", "Excitation wavelength λex": 541, "Fluorescence wavelength λem": 642}, {"smiles": "CCN1C(=O)/C(=c2\\s/c(=C/c3ccc4c(c3)C3CCCC3N4c3cccc(SC)c3)c(=O)n2CC(=O)O)SC1=S", "note": "(centres unmarked) [Compound 33]", "Excitation wavelength λex": 536, "Fluorescence wavelength λem": 632}, {"smiles": "COc1ccc2cc(N3c4ccc(/C=C5/SC(=S)N(CC(=O)O)C5=O)cc4C4CCCC43)ccc2c1", "note": "(centres unmarked) [Compound 26]", "Excitation wavelength λex": 525, "Fluorescence wavelength λem": 646}, {"smiles": "CCN1C(=O)/C(=c2\\s/c(=C/c3ccc4c(c3)CC(C)N4CC)c(=O)n2CC(=O)O)SC1=S", "note": "(centres unmarked) [Compound 36]", "Excitation wavelength λex": 541, "Fluorescence wavelength λem": 640}, {"smiles": "CCN1CCc2cc(/C=C3/SC(=S)N(CC(=O)O)C3=O)ccc21", "note": "[Compound 19]", "Excitation wavelength λex": 511, "Fluorescence wavelength λem": 594}, {"smiles": "CCN1C(=O)/C(=c2\\s/c(=C/c3cc(Br)c4c(c3)C3CCCC3N4c3ccc(Br)cc3)c(=O)n2CC(=O)O)SC1=S", "note": "(centres unmarked) [Compound 35]", "Excitation wavelength λex": 520, "Fluorescence wavelength λem": 617}, {"smiles": "CCN1c2ccc(/C=C3/SC(=S)N(CCC(=O)O)C3=O)cc2C2CCCC21", "note": "(centres unmarked) [Compound 13]", "Excitation wavelength λex": 513, "Fluorescence wavelength λem": 587}, {"smiles": "CCN1c2ccc(/C=C3/SC(=S)N(CCC(=O)O)C3=O)cc2CC1C", "note": "(centres unmarked) [Compound 7]", "Excitation wavelength λex": 509, "Fluorescence wavelength λem": 593}, {"smiles": "O=C(O)CN1C(=O)/C(=C\\c2cc(Br)c3c(c2)C2CCCC2N3c2ccc(Br)cc2)SC1=S", "note": "(centres unmarked) [Compound 21]", "Excitation wavelength λex": 476, "Fluorescence wavelength λem": 580}, {"smiles": "CSc1cccc(N2c3ccc(/C=C4/SC(=S)N(CC(=O)O)C4=O)cc3C3CCCC32)c1", "note": "(centres unmarked) [Compound 18]", "Excitation wavelength λex": 509, "Fluorescence wavelength λem": 604}, {"smiles": "CCN1c2ccc(/C=C3/SC(=S)N(CCCCCC(=O)O)C3=O)cc2C2CCCC21", "note": "(centres unmarked) [Compound 45]", "Excitation wavelength λex": 513, "Fluorescence wavelength λem": 589}, {"smiles": "CSc1ccc(N2c3ccc(/C=C4/SC(=S)N(CCC(=O)O)C4=O)cc3C3CCCC32)cc1", "note": "(centres unmarked) [Compound 12]", "Excitation wavelength λex": 518, "Fluorescence wavelength λem": 647}, {"smiles": "O=C(O)CCN1C(=O)/C(=C\\c2ccc3c(c2)C2CCCC2N3Cc2ccccc2)SC1=S", "note": "(centres unmarked) [Compound 3]", "Excitation wavelength λex": 510, "Fluorescence wavelength λem": 584}, {"smiles": "O=C(O)CN1C(=O)/C(=C\\c2cc(Br)c3c(c2)C2CCCC2N3Cc2ccccc2)SC1=S", "note": "(centres unmarked) [Compound 24]", "Excitation wavelength λex": 486, "Fluorescence wavelength λem": 578}, {"smiles": "CCN1c2ccc(/C=C3/SC(=S)N(CC(=O)O)C3=O)cc2C2CCCC21", "note": "(centres unmarked) [Compound 14]", "Excitation wavelength λex": 507, "Fluorescence wavelength λem": 585}, {"smiles": "O=C(O)CN1C(=O)/C(=C\\c2ccc3c(c2)CCN3c2ccccc2)SC1=S", "note": "[Compound 22]", "Excitation wavelength λex": 505, "Fluorescence wavelength λem": 612}, {"smiles": "CCN1c2ccc(/C=C/C=C3/SC(=S)N(CCC(=O)O)C3=O)cc2C2CCCC21", "note": "(centres unmarked) [Compound 11]", "Excitation wavelength λex": 564, "Fluorescence wavelength λem": 671}, {"smiles": "CCCCCN1C(=O)/C(=c2\\s/c(=C/c3ccc4c(c3)C3CCCC3N4c3ccc(OC)cc3)c(=O)n2CC(=O)OCC)SC1=S", "note": "(centres unmarked) [Compound 44]", "Excitation wavelength λex": 548, "Fluorescence wavelength λem": 656}, {"smiles": "O=C(O)CCN1C(=O)/C(=C\\c2cc(Br)c3c(c2)C2CCCC2N3c2ccc(Br)cc2)SC1=S", "note": "(centres unmarked) [Compound 1]", "Excitation wavelength λex": 474, "Fluorescence wavelength λem": 590}, {"smiles": "C=CCN1C(=O)/C(=c2\\s/c(=C/c3ccc4c(c3)C3CCCC3N4c3ccccc3)c(=O)n2CC(=O)O)SC1=S", "note": "(centres unmarked) [Compound 42]", "Excitation wavelength λex": 543, "Fluorescence wavelength λem": 636}, {"smiles": "CN1c2ccc(/C=C3/SC(=S)N(CCC(=O)O)C3=O)cc2C2CCCC21", "note": "(centres unmarked) [Compound 6]", "Excitation wavelength λex": 517, "Fluorescence wavelength λem": 590}]}, {"test_system": "cranial nerve tissue (brain) of juvenile zebrafish", "experiment": "Example 3: brain fluorescence of juvenile zebrafish exposed to compound (23) probe liquid with or without MK571 and FTC", "format": "in vivo", "details": "concluded from single versus combined MK571 and FTC", "description": "A probe liquid 6 was obtained by changing the compound (8) used in the probe liquid 1 of Example 1 to the compound (23). Further, a probe liquid 7 was obtained by adding MK571 and FTC, each at 30 μM, as a transporter inhibitor.\n4 mL of the probe liquid 6 and 7 and each of 20 juvenile zebrafish on 7 days post fertilization were each loaded into any well of a 6-well multiplate, and exposure was started. The zebrafish during exposure were each taken out of the well 60 minutes, 180 minutes and 360 minutes after the starting of the exposure, and in accordance with the same operation as in Example 1, fluorescence images of a cranial nerve tissue and a blood vessel on the zebrafish body side were captured and fluorescence intensities in the CNS tissue and the blood vessel were evaluated.", "values": [{"smiles": "COc1ccc(N2c3ccc(/C=C4/SC(=S)N(CC(=O)O)C4=O)cc3C3CCCC32)cc1", "note": "(centres unmarked) [Compound 23]", "transport by transporters (substrate property)": "transported by both of MRP and BCRP"}]}]}
